The target of this test is EGFR (UniProt P00533).

In the Kinase Knowledgebase extract (Sharma et al. 2016) one finds IC50 data, which are given here for 15 compounds.

Each structure is given as a SMILES string. Bounds are passed on as bounds.

Sequence of EGFR (P00533 whole entry, looked up): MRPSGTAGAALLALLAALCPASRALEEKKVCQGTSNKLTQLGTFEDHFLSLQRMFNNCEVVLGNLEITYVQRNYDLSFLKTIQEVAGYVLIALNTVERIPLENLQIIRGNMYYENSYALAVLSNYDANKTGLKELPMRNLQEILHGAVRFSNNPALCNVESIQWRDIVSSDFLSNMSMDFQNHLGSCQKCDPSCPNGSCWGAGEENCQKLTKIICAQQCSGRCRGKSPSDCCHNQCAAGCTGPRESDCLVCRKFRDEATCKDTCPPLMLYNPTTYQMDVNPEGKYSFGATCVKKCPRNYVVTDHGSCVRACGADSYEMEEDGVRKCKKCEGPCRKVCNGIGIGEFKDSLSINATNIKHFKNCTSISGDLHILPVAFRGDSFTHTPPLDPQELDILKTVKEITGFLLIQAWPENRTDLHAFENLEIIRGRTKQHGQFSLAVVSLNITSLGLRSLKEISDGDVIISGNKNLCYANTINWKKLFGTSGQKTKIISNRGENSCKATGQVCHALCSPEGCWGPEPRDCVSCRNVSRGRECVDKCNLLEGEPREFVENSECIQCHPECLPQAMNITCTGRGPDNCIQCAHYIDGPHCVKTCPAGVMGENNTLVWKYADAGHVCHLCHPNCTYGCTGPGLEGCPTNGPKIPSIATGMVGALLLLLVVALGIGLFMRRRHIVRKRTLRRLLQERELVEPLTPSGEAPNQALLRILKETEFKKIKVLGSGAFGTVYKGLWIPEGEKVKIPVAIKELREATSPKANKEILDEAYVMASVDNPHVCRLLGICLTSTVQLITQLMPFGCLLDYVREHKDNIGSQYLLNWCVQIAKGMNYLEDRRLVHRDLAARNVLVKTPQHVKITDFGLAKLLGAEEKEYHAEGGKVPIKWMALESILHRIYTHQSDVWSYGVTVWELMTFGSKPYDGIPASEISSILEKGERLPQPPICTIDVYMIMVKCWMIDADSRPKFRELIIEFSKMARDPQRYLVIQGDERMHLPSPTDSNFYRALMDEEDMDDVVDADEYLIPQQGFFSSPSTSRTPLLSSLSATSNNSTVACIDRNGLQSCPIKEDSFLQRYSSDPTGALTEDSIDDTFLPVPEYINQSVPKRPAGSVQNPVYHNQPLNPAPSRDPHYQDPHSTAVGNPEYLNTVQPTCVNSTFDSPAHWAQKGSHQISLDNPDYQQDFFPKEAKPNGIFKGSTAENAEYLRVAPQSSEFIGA

On to `C[C@@H](Nc1ncnc2ccccc12)c1ccccc1`, for which the IC50 (as a rule, the point on the concentration scale where inhibition reaches its midpoint) turned out to be 86 nM.

With `COc1ccc2c(N[C@@H](C)c3ccccc3)ncnc2c1`, the IC50 was found to be 4000 nM.

In turn, `COc1cc2ncnc(NCc3ccccc3)c2cc1OC` had an IC50 of 10 nM.

The compound `c1ccc(CCNc2ncnc3ccccc23)cc1` gave a concentration for half-maximal inhibition (IC50) of 4100 nM.

In the case of `COc1ccc2c(N[C@H](C)c3ccccc3)ncnc2c1`, the IC50 is 29 nM.

Compound `c1ccc(CNc2ncnc3ccccc23)cc1` came in with an IC50 of 320 nM.

`COc1ccc2c(NCc3ccccc3)ncnc2c1` returned an IC50 of 58 nM.

On to `C[C@H](Nc1ncnc2ccccc12)c1ccccc1`, for which the IC50 is above 10000 nM.

`COc1cc2ncnc(NC3CCc4ccccc43)c2cc1OC` (stereo not given): the IC50 worked out at 1000 nM.

Take `COc1cc2ncnc(N[C@H](C)c3cccc4ccccc34)c2cc1OC`: the IC50 is 139 nM.

In turn, `COc1ccc2c(Nc3ccccc3)ncnc2c1` registered an IC50 of 120 nM.

`COc1cc2ncnc(N[C@@H](C)c3ccccc3)c2cc1OC` came in with an IC50 of 3760 nM.

Consider `COc1cc2ncnc(N[C@H](C)c3ccccc3)c2cc1OC`, for which the IC50 was 1.6 nM.

The compound `COc1cc2ncnc(NCc3cccc4ccccc34)c2cc1OC` registered an IC50 of 148 nM.

On to `CC[C@@H](Nc1ncnc2cc(OC)c(OC)cc12)c1ccccc1`, for which the IC50 came to 234 nM.
